Assay results as given in patent publication US6576641B2, “Fused heterocyclic compounds and their use in the treatment of neurodegenerative diseases” (Neurosearch A/S, priority 1999, dated 2003).

Legend:
[1] = tested on: differentiated PC12 cells; assay: Survival of differentiated PC12 cells after NGF withdrawal, cell viability by reduction of MTS; format: cell-based
Description: (§1) Survival of Differentiated PC12 Cells after NGF Withdrawal
(§2) PC12 cells are considered models for […] neurons for the investigation of neuronal differentiation and apoptosis.
(§3) PC12 cells were seeded in collagen coated 96 well plates at a cell density of 8000/cm^2 in DMEM with 7.5% FCS, 7.5% HS and 2 nM NGF and cultured for 6 days.
(§4) The medium was then changed to DMEM without serum supplemented with the compound of the test compound in the concentrations indicated in FIG. 1. As a positive control, parallel wells receiving serum-free DMEM without addition of vehicle or 3 nM NGF were included.
After 4 days of incubation, cell viability was evaluated by reduction of MTS using the CellTiter 96 AQueous Non-radioactive Cell Proliferation Assay (available from Promega).
Data are expressed as % of the response seen with 3 nM NGF, and corrected for residual MTS reduction activity in the parallel serum-free cultures, cf. FIG. 1A.

[2] = tested on: differentiated PC12 cells; assay: Survival of differentiated PC12 cells after NGF withdrawal, cell viability by CyQUANT; format: cell-based; conditions: differentiated PC12 cells in serum-free medium, after 4 days; FIG. 1B
Description: as §1, §2, §3, §4
In another assay cell viability after 4 days was evaluated by using the CyQUANT Cell Proliferation Kit from Molecular Probes. CyQUANT might give a better correlation with the actual cell number of the culture than MTS, which rather reflects the total metabolic activity of the culture, cf. FIG. 1B.

## CCCCN1CCc2oc(-c3ccc([N+](=O)[O-])cc3)cc2C1.O=C(O)/C=C/C(=O)O [Compound 1, 6-(4-Nitrophenyl)-furano[3,2-c]-N-butyl-1,2,3,4-tetrahydropyridine Fumaric Acid Salt]
[1]; at nanomolar concentrations, stated for both MTS and CyQUANT experiments
  rescue of differentiated PC12 cells in serum-free medium: potent dose-dependent rescue
[1]; differentiated PC12 cells in serum-free medium, 4 days of incubation, % of the response seen with 3 nM NGF, corrected for serum-free cultures, FIG. 1A
  maximal protection (cell viability, MTS): approximately 30%
[1]; differentiated PC12 cells in serum-free medium, tested 1 nM to 10 μM, stated for both MTS and CyQUANT experiments
  concentration giving maximal protection: 100 nM
[2]
  maximal rescue (cell survival, CyQUANT): approximately 50%
